Assay results: patent publication US3968219A, “Hydroxy phenylbutazone derivatives and their preparation” (Schering Aktiengesellschaft, priority 1974, dated 1976)

Legend:
[1] = system: stripped skin on the backs of volunteers; assay: vasoconstriction test (topical anti-inflammatory activity on stripped, hyperemic skin); assay type: in vivo; conditions: for vasoconstriction, colour value (normal skin = 100, untreated stripped skin = 0): 50 mg topical; for activity in vasoconstriction test compared with hydroxyphenylbutazone: topical, Table I, in words
Description: The topical anti-inflammatory activity of the novel hydroxyphenylbutazone derivatives can be determined employing the conventional vasoconstriction test as follows: On the backs of volunteers for the experiment, the stratum corneum was abraded by the application and tearing off of adhesive tape, conducted 20 times at the same spot, thus producing a pronounced hyperemia. Within the stripped area, respectively 50 mg of ointment containing in each case 0.1% and 0.01%, respectively, of the substance to be tested or of the reference substance in a water-oil base was applied on marked areas. The extent of the vasoconstriction was determined one, four, and eight hours after application. In order to evaluate the vasoconstriction, which is a representative syndrome of topical anti-inflammatory activity the color values of the untreated stripped skin and the treated stripped skin were determined and compred with the color value of the normal skin, wherein the color value of the normal skin was set to be equal to 100 and the color value of the untreated stripped skin was fixed at 0. Minor, moderate, and high-grade vasoconstriction was evaluated with values between 0 and 100. The results are shown in Table I below in which two compounds of this invention (III, IV) were compated with hydroxyphenylbutazone (I) and fluorocortolone.

[2] = system: right ear of male rats (edema); assay: Edema test, Tonelli method (croton oil ear edema); assay type: in vivo; conditions: in pyridine/water/ether/croton oil irritant, 3 hours after application
Description: The anti-inflammatory activity of the novel hydroxyphenylbutazone derivatives upon topical application can also be determined in accordance with the Tonelli method, as follows:
The compound to be tested is dissolved in an irritant consisting of 4 parts of pyridine, 1 part of distilled water, 5 parts of ether, and 10 parts of a 4% ether croton oil solution. Felt strips attached to the insides of a slide tweezers are saturated with this text solution and pressed under slight pressure for 15 seconds onto the right ear of male rats weighing 100-160 g.
The left ear remains untreated and serves as control. Three hours after application, the animals are sacrificed and disks of a size of 9 mm. are punched out of their ears. The weight difference between the disk from the right ear and that of the left ear is a measure for the thus-formed edema.
The concentrations of effective agent (ED50) are determined which, when employed, cause a 50% reduction in the formation of edema.

Compound | vasoconstriction, colour value (normal skin = 100, untreated stripped skin = 0) ([1]; 0.01% ointment, 1 hour) | vasoconstriction, colour value (normal skin = 100, untreated stripped skin = 0) ([1]; 0.01% ointment, 4 hours) | vasoconstriction, colour value (normal skin = 100, untreated stripped skin = 0) ([1]; 0.01% ointment, 8 hours) | vasoconstriction, colour value (normal skin = 100, untreated stripped skin = 0) ([1]; 0.1% ointment, 1 hour) | vasoconstriction, colour value (normal skin = 100, untreated stripped skin = 0) ([1]; 0.1% ointment, 4 hours) | vasoconstriction, colour value (normal skin = 100, untreated stripped skin = 0) ([1]; 0.1% ointment, 8 hours) | ED50 (concentration causing 50% reduction in the formation of edema) [2] [µg/mL] | activity in vasoconstriction test compared with hydroxyphenylbutazone [1]
CCCCC1C(=O)N(c2ccccc2)N(c2ccc(O)cc2)C1=O (stereo not shown) [I, 4-Butyl-1-(4-hydroxyphenyl)-2-phenyl-3,5-pyrazolidinedione] | 18 | 25 | 24 | 15 | 35 | 33 | 8000 | 
CCCCC1C(=O)N(c2ccccc2)N(c2ccc(OC(=O)CCCCC(=O)Oc3ccc(N4C(=O)C(CCCC)C(=O)N4c4ccccc4)cc3)cc2)C1=O (stereo not shown) [III, Adipic Acid Bis[4-(4-butyl-3,5-dioxo-2-phenylpyrazolidinyl)-phenyl Ester]] | 34 | 66 | 70 | 44 | 72 | 78 | 2100 | substantially more active than hydroxyphenylbutazone
C[C@@H]1C[C@H]2[C@@H]3C[C@H](F)C4=CC(=O)C=C[C@]4(C)[C@H]3[C@@H](O)C[C@]2(C)[C@H]1C(=O)CO [II, 6α-Fluoro-11β,21-dihydroxy-16α-methyl-1,4-pregnadiene-3,20-dione] | 15 | 65 | 85 | 35 | 75 | 85 | 3400 | 
CCCCC1C(=O)N(c2ccccc2)N(c2ccc(OC(=O)CCCCCC(=O)Oc3ccc(N4C(=O)C(CCCC)C(=O)N4c4ccccc4)cc3)cc2)C1=O (stereo not shown) [IV, Pimelic Acid Bis[4-(4-butyl-3,5-dioxo-2-phenylpyrazolidinyl)-phenyl Ester]] |  | 44 | 49 |  | 65 | 67 | 4200 | substantially more active than hydroxyphenylbutazone
